According to patent publication EP3578378B1, “RECORDING MEDIUM AND METHOD FOR PRODUCING RECORDING MEDIUM” (CANON KABUSHIKI KAISHA, priority 2018, dated 2019):
In brackets after ≈: the same amount, converted by molar mass.

experiment: Solubility of compound (B) in water at 20°C (10.0 g sample in 100 mL ion-exchange water, undissolved or recrystallized sample weighed); type: physicochemical; conditions: stirred at 80°C for one hour, cooled to 20°C, more than 10.0 g/100 mL if completely dissolved
Protocol: The method for measuring this solubility is as follows.
First, 10.0 g of a sample to be measured is added to 100 mL of ion-exchange water, and the resulting mixture is stirred at 80°C for one hour to dissolve the sample. Next, the resulting solution in which the sample is dissolved is cooled to 20°C. The sample that remains without being dissolved or is recrystallized is collected, and the weight thereof is determined. […] Crosslinking Agent

SMILES | solubility thermodynamic at 1 h [mg/mL] | Solubility in water at 20°C [g/100 mL]
Oc1ccc(O)c(O)c1 [1,2,4-Trihydroxybenzene, 1,2,4-trihydroxybenzene, reference compound] | > 100 | –
NC(=O)/C=C/C(N)=O [Fumaramide, fumaramide] | – | 0.2
O=C(O)/C=C/C(=O)O [Fumaric acid, fumaric acid] | – | 0.5
O=C(O)c1cc(O)c(O)c(O)c1 [Gallic acid, gallic acid] | – | 1.0
O=C(O)c1cccc(C(=O)O)c1C(=O)O [Hemimellitic acid, hemimellitic acid] | – | 2.0
O=C(O)/C=C\C(=O)O [Maleic acid, maleic acid, reference compound] | – | >10.0
O=C(O)c1cc(C(=O)O)c(C(=O)O)cc1C(=O)O [Pyromellitic acid, pyromellitic acid] | 15 (≈ 59 mM) | –
O=C(O)c1ccc(C(=O)O)c(C(=O)O)c1 [Trimellitic acid, trimellitic acid] | – | 2.0
NC(=O)c1cc(C(N)=O)cc(C(N)=O)c1 [Trimesamide, trimesamide] | – | 0.2
O=C(O)c1cc(C(=O)O)cc(C(=O)O)c1 [Trimesic acid, trimesic acid] | – | 0.5
CC(=O)[O-].CC(=O)[O-].[O-2].[Zr+4] [ZrO(C2H3O2)2, reference compound] | – | >10
[Cl-].[Cl-].[O]=[Zr+2] [ZrOCl2, reference compound] | – | >10
